One assay deals with DA neurons. Description: DA neuron degeneration in worms with GFP-labeled DA neurons (BY250), scored by fluorescence/confocal imaging. In kind it is in vivo, C. elegans. The conditions noted are these: for rescue of DA neuron degeneration of swip-10: BY250. The method, then: FIG. 6A: WT transgenic worms with GFP-labeled DA neurons (BY250) were raised on agar plates containing vehicle or 10 μM of the Cu+ specific chelator BCS and imaged by fluorescence microscopy at the late L4 stage to quantify DA neuron degeneration. Data derived from 4 experiments for each condition with statistical evaluation by a one-tailed Student's t-test. […] CuCl2 is known to generate Cu+ upon uptake into cells, thus elevating intracellular Cu+ levels. […] Sustained alterations in mitochondrial function and increased oxidative stress are expected to place neurons at risk for death due to their high metabolic rate. […] Assays were performed blind to genotype and treatment, and degeneration assessed by scoring the frequency of dendritic breaks, shrunken soma and missing neurons as described by Gibson et al, 2018. Extending work examining degeneration in BY250: swip-10 vs BY250, a potential Cu-sensitive regulation of swip-10 degeneration was assessed using growth of BY250 animals on the Cu+ specific chelator, BCS, to promote degeneration, and incubation of BY250: swip-10 on CuCl2 and elesclomol to prevent swip-10 degeneration.

Another assay concerns Menkes disease. To be noted: boosting Cu levels; cited from earlier work.
For assay [1], the system named is mitochondrial respiration. The conditions noted are these: swip-10 KO worms treated with FCCP.
From the text: Data here are presented as mean oxygen consumption (pmol/second) of 100 worms. ** represents statistical significance (P<0.01) compared to the N2 strain by a two-tailed (unpaired) t-test.
A further assay relates to chca-1. Description: qPCR of chca-1 RNA levels in worms. The conditions noted are these: N2 worms treated with BCS; similar extent as in swip-10 animals. The assay is classed as in vivo, C. elegans. (In qPCR the cycle at which signal appears reflects the starting amount.)
In another assay the target is T1, MBLAC1 (Homo sapiens, UniProt A4D2B0).
T1 sequence (A4D2B0 1-266): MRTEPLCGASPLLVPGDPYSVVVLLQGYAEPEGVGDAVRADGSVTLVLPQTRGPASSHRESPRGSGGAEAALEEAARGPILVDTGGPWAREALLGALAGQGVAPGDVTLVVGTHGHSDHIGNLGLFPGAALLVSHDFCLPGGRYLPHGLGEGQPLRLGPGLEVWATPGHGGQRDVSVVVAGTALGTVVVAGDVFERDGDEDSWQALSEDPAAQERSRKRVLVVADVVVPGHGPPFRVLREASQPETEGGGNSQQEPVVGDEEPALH
To be noted: cited from earlier work.

In assay [2] the test system is GLT1 type glutamate transporter. To be noted: rodents treated with ceftriaxone; cited from earlier work.
In assay [3] the test system is animal models of AD and other neurodegenerative disorders. To be noted: stroke, oxygen glucose deprivation induced neurodegeneration, motor neuron degeneration; cited from earlier work.

With `[Cl][Cu][Cl]` [CuCl2], in the assay with DA neurons (swip-10 animals incubated with CuCl2 (10 μM)), the “rescue of DA neuron degeneration of swip-10” value is “rescued”. For `CN(NC(=O)CC(=O)NN(C)C(=S)c1ccccc1)C(=S)c1ccccc1` [elesclomol], the “rescue of DA neuron degeneration of swip-10” value in the assay with DA neurons (swip-10 animals incubated with elesclomol (5 μM)) was “rescued”. For the same compound, the “pathology associated with Menkes disease” value with Menkes disease is listed as “reduce pathology”. For `N#CC(C#N)=NNc1ccc(OC(F)(F)F)cc1` [FCCP], in assay [1], the oxygen consumption result is on record as “restores oxygen consumption”. `Cc1cc(-c2ccc(S(=O)(=O)O)cc2)c2ccc3c(-c4ccc(S(=O)(=O)O)cc4)cc(C)nc3c2n1` [BCS, bathocuproinedisulfonic acid]: in the assay on DA neurons (WT (BY250) worms raised on agar plates containing 10 μM BCS, imaged at late L4 stage), the DA neuron degeneration entry is given as “DA neuron degeneration generated”. Besides, the “chca-1 RNA levels” value in the assay on chca-1 is on record as “elevated”. For `CO/N=C(\C(=O)N[C@@H]1C(=O)N2C(C(=O)O)=C(CSc3nc(=O)c(=O)[nH]n3C)CS[C@H]12)c1csc(N)n1` [ceftriaxone], the “binding to MBLAC1” value on MBLAC1 was “binds MBLAC1”. For the same compound, the “GLT1 type glutamate transporter level” value in assay [2] is recorded as “triggers an elevation”. Moreover, in assay [3], the neuroprotection result is recorded as “demonstrates neuroprotection”.

Source of the values: US20260110682A1, “COMPOSITIONS AND METHODS TARGETING SWIP-10 AND MBLAC1 FOR THE THERAPEUTIC MODULATION OF COPPER DYSHOMEOSTASIS” (Florida Atlantic University Board of Trustees, priority 2022, published 2026).
